From US20160052898A1, “NOVEL COMPOUNDS” (BAYER PHARMA AKTIENGESELLSCHAFT, priority 2013, published 2016)

Assays:
Format in all cases: cell-based
[1] = test system: constitutive active colorectal cancer cell (CRC) Wnt pathway; experiment: HCT116 Super TopFlash cellular reporter assay (constitutive active Wnt pathway); conditions: Homo sapiens, HCT-116, 36 h, HCT116 TOP reporter cells, luciferase expression, 36 hours incubation, 50 μM to 15 nM
Summary of the method: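 HCT116 cells (β-catenin ΔS45) stably carrying Super TopFlash, with a parallel FOP-control line, were plated 24 h ahead. They were exposed 36 h at 37 °C, 5% CO2 to compound from a 50 μM–15 nM, 3.16-fold pre-dilution series in CAFTY buffer (pH 7.4, 2 mM Ca2+, 0.01% BSA). Wnt signalling was read as luciferase luminescence.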

[2] = test system: HCT116 FOP control reporter cell line; experiment: HCT116 FOP control vector reporter assay (non-functional TCF elements); conditions: Homo sapiens, HCT-116, 36 h, HCT116 FOP control reporter cells, luciferase expression, 36 hours incubation, 50 μM to 15 nM; read-out: HCT116 FOPFlash IC50
Summary of the method: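 Stable HCT116 line carrying the non-functional FOP luciferase construct, 10000 cells/well plated 24 hrs before. Compounds 50 μM to 15 nM (3.16-fold steps) in CAFTY buffer pH 7.4 with 2 mM Ca2+, 36 hours at 37° C; luciferase luminescence read.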

wildtype Wnt pathway = experiment: HEK293 Super TopFlash cellular reporter assay, Wnt-3a stimulated (wildtype Wnt pathway); conditions: Homo sapiens; HEK293 TOP reporter cells, EC50 concentration of recombinant Wnt-3a, 16 hours incubation; read-out: HEK TOP OncoFlash IC50
Experimental: (§1) In order to determine the inhibitory activity of compounds for the WT Wnt signaling pathway, the Super TopFlash vector respectively FOP vector were cotransfected with pcDNA3 into HEK293 and stable transfected HEK293 cells were isolated by antibiotic selection. […] The recombinant human Wnt-3a was thereby used between 2500 and 5 ng/ml in two-fold dilution steps. […] Measurement of luciferase expression was done as described for the constitutive active Wnt assay.
In order to discover and characterize small molecules which inhibit the wildtype Wnt pathway, a cellular reporter assay was employed. The corresponding assay cell was generated by transfection of the mammalian cell line HEK293 (ATCC, #CRL-1573) with the Super TopFlash vector (Morin, Science 275, 1997, 1787-1790; Molenaar et al., Cell 86 (3), 1996, 391-399). The HEK293 cell line is cultivated at 37° C. and 5% CO2 in DMEM (Life Technologies, #41965-039), supplemented with 2 mM glutamine, 20 mM HEPES, 1.4 mM pyruvate, 0.15% Na-bicarbonate and 10% foetal bovine serum (GIBCO, #10270). Stable transfectants were generated by selection with 300 μg/ml Hygromycin.
(§2) In preparation of the assay, the two cell lines were plated 24 hours before beginning the test at 10000 cells per well in a 384 micro titre plate (MTP) in […] growth medium. […] The recombinant human Wnt-3a was thereby applied between 2500 and 5 ng/ml in two-fold dilution steps. Selective inhibitory activity for small molecules on the wildtype Wnt pathway was determined after parallel incubation of both (TOP and FOP) HEK293 reporter cell lines with a compound dilution series from 50 μM to 15 nM in steps of 3.16-fold dilutions in CAFTY buffer (130 mM NaCl, 5 mM KCl, 20 mM HEPES, 1 mM MgCl2, 5 mM NaHCO3, pH 7.4) containing 2 mM Ca^2+ and 0.01% BSA.
(§3) The compounds were thereby serially prediluted in 100% DMSO and thereafter 50 fold into the CAFTY compound dilution buffer (described above).

[3] = test system: HEK293 FOP control reporter cell line; experiment: HEK293 FOP control vector reporter assay; conditions: Homo sapiens; HEK293 FOP control reporter cells, EC50 concentration of recombinant Wnt-3a, 16 hours incubation; read-out: HEK FOP IC50
Experimental: as §1
In a parallel approach, HEK293 cells were cotransfected with the FOP control vector and pcDNA3. The FOP vector is identical to the TOP construct, but it contains instead of functional TCF elements a randomized, non-functional sequence. For this transfection a stable transfected cell line was generated as well, based on selection with Geneticin (1 mg/ml).
as §2, §3

Row | Compound | IC50 [1] [µM] | IC50 [2] [µM] | IC50 (wildtype Wnt pathway) [µM] | IC50 [3] [µM]
1 | COc1ccc(NC(=O)c2ccc(-c3ccccc3)cc2)cc1NC(=O)[C@H](C)N1CC2CCC(C1)O2 [Example 56, N-(4-methoxy-3-{[(2S)-2-(8-oxa-3-azabicyclo[3.2.1]oct-3-yl)propanoyl]amino}phenyl)biphenyl-4-carboxamide] | 0.222 | ≥ 50 | 4 | ≥ 50
2 | CC(C(=O)Nc1cc(NC(=O)c2ccc(-c3ccccc3)cc2)ccc1OC(F)(F)F)N1CC2CCC(C1)O2 (stereo not drawn) [Example 58, N-[3-{[2-(8-oxa-3-azabicyclo[3.2.1]oct-3-yl)propanoyl]amino}-4-(trifluoromethoxy)phenyl]biphenyl-4-carboxamide] | 0.054 | ≥ 50 | 2.2 | 35
3 | C[C@@H](C(=O)Nc1cc(NC(=O)c2ccc(-c3ccccc3)cc2)ccc1OC(F)(F)F)N1CC2CCC(C1)O2 [Example 59, N-[3-{[(2S)-2-(8-oxa-3-azabicyclo[3.2.1]oct-3-yl)propanoyl]amino}-4-(trifluoromethoxy)phenyl]biphenyl-4-carboxamide] | 0.111 | 40 | 1.7 | ≥ 50
4 | CC(C(=O)Nc1cc(NC(=O)c2ccc(-c3ccccc3)cc2)ccc1OC(F)(F)F)N1CCOCC1 (stereo not drawn) [Example 61, N-[3-{[2-(morpholin-4-yl)propanoyl]amino}-4-(trifluoromethoxy)phenyl]biphenyl-4-carboxamide] | 0.13 | ≥ 50 | 0.14 | ≥ 50
5 | C[C@@H](C(=O)Nc1cc(NC(=O)c2ccc(-c3ccccc3)cc2)ccc1OC(F)(F)F)N1CCOCC1 [Example 62, N-[3-{[(2S)-2-(morpholin-4-yl)propanoyl]amino}-4-(trifluoromethoxy)phenyl]biphenyl-4-carboxamide] | 0.061 | ≥ 50 | 0.055 | 8
6 | O=C(CN1CCOCC1)Nc1cc(NC(=O)c2ccc(-c3ccccc3)cc2)ccc1OC(F)(F)F [Example 66, N-{3-[(morpholin-4-ylacetyl)amino]-4-(trifluoromethoxy)phenyl}biphenyl-4-carboxamide] | 0.0392 | ≥ 50 | 1.6 | ≥ 50
7 | COc1ccc(NC(=O)c2ccc(-c3cccc(C)c3)cc2)cc1NC(=O)CN1CCOCC1 [Example 71, N-{4-methoxy-3-[(morpholin-4-ylacetyl)amino]phenyl}-3′-methylbiphenyl-4-carboxamide] | 2.25 | ≥ 50 | 2.5 | 25
8 | COc1ccc(NC(=O)c2ccc(-c3cccc(C#N)c3)cc2)cc1NC(=O)CN1CCOCC1 [Example 72, 3′-cyano-N-{4-methoxy-3-[(morpholin-4-ylacetyl)amino]phenyl}biphenyl-4-carboxamide] | 3.75 | ≥ 50 | 1.3 | ≥ 50
9 | COc1ccc(NC(=O)c2ccc(-c3cccc(Cl)c3)cc2)cc1NC(=O)CN1CCOCC1 [Example 73, 3′-chloro-N-{4-methoxy-3-[(morpholin-4-ylacetyl)amino]phenyl}biphenyl-4-carboxamide] | 1.45 | ≥ 50 | 1.5 | 32
10 | O=C(CN1CCOCC1)Nc1cc(NC(=O)c2ccc(-c3cccc(F)c3)cc2)ccc1OC(F)(F)F [Example 74, 3′-fluoro-N-{3-[(morpholin-4-ylacetyl)amino]-4-(trifluoromethoxy)phenyl}biphenyl-4-carboxamide] | 0.047 | ≥ 50 | 0.14 | 8.3
11 | O=C(CN1CCOCC1)Nc1cc(NC(=O)c2ccc(-c3ccc(F)cc3)cc2)ccc1OC(F)(F)F [Example 75, 4′-fluoro-N-{3-[(morpholin-4-ylacetyl)amino]-4-(trifluoromethoxy)phenyl}biphenyl-4-carboxamide] | 0.145 | ≥ 50 | 0.85 | 40
12 | Nc1ccc(-c2ccc(C(=O)Nc3ccc(OC(F)(F)F)c(NC(=O)CN4CCOCC4)c3)cc2)cc1 [Example 76, 4′-amino-N-{3-[(morpholin-4-ylacetyl)amino]-4-(trifluoromethoxy)phenyl}biphenyl-4-carboxamide] | 0.487 | ≥ 50 | 0.039 | 11
13 | COC(=O)c1ccc(-c2ccc(C(=O)Nc3ccc(OC)c(NC(=O)CN4CCOCC4)c3)cc2)cc1 [Example 79, methyl 4′-({4-methoxy-3-[(morpholin-4-ylacetyl)amino]phenyl}carbamoyl)biphenyl-4-carboxylate] | 1.48 | ≥ 50 | 4.1 | ≥ 50
14 | COc1cccc(-c2ccc(C(=O)Nc3ccc(OC)c(NC(=O)CN4CCOCC4)c3)cc2)c1 [Example 80, 3′-methoxy-N-{4-methoxy-3-[(morpholin-4-ylacetyl)amino]phenyl}biphenyl-4-carboxamide] | 3.3 | ≥ 50 | 3.8 | ≥ 50
15 | COc1ccc(NC(=O)c2ccc(-c3cccc(F)c3)cc2)cc1NC(=O)CN1CCOCC1 [Example 81, 3′-fluoro-N-{4-methoxy-3-[(morpholin-4-ylacetyl)amino]phenyl}biphenyl-4-carboxamide] | 0.29 | ≥ 50 | 0.32 | 9.8
16 | COc1ccc(NC(=O)c2ccc(-c3ccccc3F)cc2)cc1NC(=O)CN1CCOCC1 [Example 82, 2′-fluoro-N-{4-methoxy-3-[(morpholin-4-ylacetyl)amino]phenyl}biphenyl-4-carboxamide] | 0.325 | ≥ 50 | 1.7 | ≥ 50
17 | COc1ccc(NC(=O)c2ccc(-c3ccc(N)cc3)cc2)cc1NC(=O)CN1CCOCC1 [Example 83, 4′-amino-N-{4-methoxy-3-[(morpholin-4-ylacetyl)amino]phenyl}biphenyl-4-carboxamide] | 0.319 | ≥ 50 | 0.76 | ≥ 50
18 | CCOc1ccc(NC(=O)c2ccc(-c3ccccc3)cc2)cc1NC(=O)CN1CCOCC1 [Example 85, N-{4-ethoxy-3-[(morpholin-4-ylacetyl)amino]phenyl}biphenyl-4-carboxamide] | 0.0997 | ≥ 50 | 0.83 | ≥ 50
19 | COCCOCc1ccc(C(=O)Nc2ccc(-c3ccccc3)cc2)cc1NC(=O)CN1CCOCC1 [Example 86, N-(biphenyl-4-yl)-4-[(2-methoxyethoxy)methyl]-3-[(morpholin-4-ylacetyl)amino]benzamide] | 0.087 | ≥ 50 | 0.61 | ≥ 50
20 | O=C(Nc1ccc(-c2ccccc2)cc1)c1ccc(OCc2ccccc2)c(NC(=O)C2(N3CCOCC3)CC2)c1 [Example 88, 4-(benzyloxy)-N-(biphenyl-4-yl)-3-({[1-(morpholin-4-yl)cyclopropyl]carbonyl}amino)benzamide] | 0.0448 | ≥ 50 | 0.093 | ≥ 50
21 | CC(=O)NCCCOc1ccc(C(=O)Nc2ccc(-c3ccccc3)cc2)cc1NC(=O)C1(N2CCOCC2)CC1 [Example 90, 4-(3-acetamidopropoxy)-N-(biphenyl-4-yl)-3-({[1-(morpholin-4-yl)cyclopropyl]carbonyl}amino)benzamide] | 0.05 | 27.4 | 0.0206 | 6.1
